Laboratory results reported in patent US20240239766A1, “3-AMINO PIPERIDYL SODIUM CHANNEL INHIBITORS” (Genentech, Inc., priority 2021, published 2024).
Where a name gives a salt, the structure may show the parent alone.

Biological target: hNav1.7 (Homo sapiens (Human), UniProt Q15858)
Experiment: Patch voltage clamp electrophysiology assay (EP), Syncropatch 384PE, CHO cells expressing Nav1.7
Format: cell-based
Details: holding potential −50 mV; 7.5 min compound incubation; read-out: EP SP hNav1.7 EVO (IC50)
Description: Example 101c: Electrophysiological Assay (EP) (In Vitro Assay)
Patch voltage clamp electrophysiology allows for the direct measurement and quantification of block of voltage-gated sodium channels (NaV's), and allows the determination of the time- and voltage-dependence of block which has been interpreted as differential binding to the resting, open, and inactivated states of the sodium channel (Hille, B., Journal of General Physiology (1977), 69: 497-515).
The following voltage clamp electrophysiology studies are performed on representative compounds using cells heterologously expressing Nav1.7 or Nav1.5 channels. cDNAsfor Nav1.7 (NM_002977) and Nav1.5 (AC137587) are stably expressed in Chinese Hamstr Ovary (CHO) cells and CHL (Chinese Hamster Lung) cells respectively. Sodium currents are measured in the whole-cell configuration using Syncropatch 384PE (Nanlon Technologies, Germany). 1NPC®-384 chips with custom medium resistance and single hole mode are used. Internal solution consists of (in mM): […], 10 CsCl, 20 EGTA, and 10 Hepes (pH adjusted to 7.2); and external solution contains (in mM): 60 NMDG, 80 NaCl, 4 KCl, 1 MgCl2, 2 CaCl2), 2 D-Glucose monohydrate, 10 Hepes (pH adjusted to 7.4 with NaOH).
After system flushing, testing compounds are dissolved in external solution containing 0.1% Pluronic F-127. The chip is moved into the measuring head and the instrument primes the chip with external and internal solutions. 10 μl cells are added to the chip from a cell hotel, and a negative pressure of −50 mBar is applied to form a seal. Following treatment with seal enhancer solution and wash-off with external solution, negative pressure of −250 mbar is applied for 1 second to achieve the whole-cell configuration, followed by three washing steps in external solution. 20 μl of compounds is added to 40 μl in each well (1:3 dilution of compounds), and after mixing, 20 μl is removed so the volume is retained at 40 ul. After approximately 13 minutes recordings, 20 μl/well of 2 uM TTX, or 333 uM Tetracaine (for Nav1.5) is added to achieve full block.
For voltage protocol, an holding potential of −50 mV is applied during the whole experiment. A depolarizing step is applied to −10 mV for 10 ms, followed by a hyperpolarization step to −150 mV for 20 ms to allow channel recovery from inactivation. A second depolarizing step is applied from −150 mV to −10 mV for 10 ms, where currents are measured to derive blocking effects of compounds. Inhibition is determined based on 7.5 min of compound incubation.

Sequence of hNav1.7 (Q15858 other isoform, or with tags, fused parts or gaps): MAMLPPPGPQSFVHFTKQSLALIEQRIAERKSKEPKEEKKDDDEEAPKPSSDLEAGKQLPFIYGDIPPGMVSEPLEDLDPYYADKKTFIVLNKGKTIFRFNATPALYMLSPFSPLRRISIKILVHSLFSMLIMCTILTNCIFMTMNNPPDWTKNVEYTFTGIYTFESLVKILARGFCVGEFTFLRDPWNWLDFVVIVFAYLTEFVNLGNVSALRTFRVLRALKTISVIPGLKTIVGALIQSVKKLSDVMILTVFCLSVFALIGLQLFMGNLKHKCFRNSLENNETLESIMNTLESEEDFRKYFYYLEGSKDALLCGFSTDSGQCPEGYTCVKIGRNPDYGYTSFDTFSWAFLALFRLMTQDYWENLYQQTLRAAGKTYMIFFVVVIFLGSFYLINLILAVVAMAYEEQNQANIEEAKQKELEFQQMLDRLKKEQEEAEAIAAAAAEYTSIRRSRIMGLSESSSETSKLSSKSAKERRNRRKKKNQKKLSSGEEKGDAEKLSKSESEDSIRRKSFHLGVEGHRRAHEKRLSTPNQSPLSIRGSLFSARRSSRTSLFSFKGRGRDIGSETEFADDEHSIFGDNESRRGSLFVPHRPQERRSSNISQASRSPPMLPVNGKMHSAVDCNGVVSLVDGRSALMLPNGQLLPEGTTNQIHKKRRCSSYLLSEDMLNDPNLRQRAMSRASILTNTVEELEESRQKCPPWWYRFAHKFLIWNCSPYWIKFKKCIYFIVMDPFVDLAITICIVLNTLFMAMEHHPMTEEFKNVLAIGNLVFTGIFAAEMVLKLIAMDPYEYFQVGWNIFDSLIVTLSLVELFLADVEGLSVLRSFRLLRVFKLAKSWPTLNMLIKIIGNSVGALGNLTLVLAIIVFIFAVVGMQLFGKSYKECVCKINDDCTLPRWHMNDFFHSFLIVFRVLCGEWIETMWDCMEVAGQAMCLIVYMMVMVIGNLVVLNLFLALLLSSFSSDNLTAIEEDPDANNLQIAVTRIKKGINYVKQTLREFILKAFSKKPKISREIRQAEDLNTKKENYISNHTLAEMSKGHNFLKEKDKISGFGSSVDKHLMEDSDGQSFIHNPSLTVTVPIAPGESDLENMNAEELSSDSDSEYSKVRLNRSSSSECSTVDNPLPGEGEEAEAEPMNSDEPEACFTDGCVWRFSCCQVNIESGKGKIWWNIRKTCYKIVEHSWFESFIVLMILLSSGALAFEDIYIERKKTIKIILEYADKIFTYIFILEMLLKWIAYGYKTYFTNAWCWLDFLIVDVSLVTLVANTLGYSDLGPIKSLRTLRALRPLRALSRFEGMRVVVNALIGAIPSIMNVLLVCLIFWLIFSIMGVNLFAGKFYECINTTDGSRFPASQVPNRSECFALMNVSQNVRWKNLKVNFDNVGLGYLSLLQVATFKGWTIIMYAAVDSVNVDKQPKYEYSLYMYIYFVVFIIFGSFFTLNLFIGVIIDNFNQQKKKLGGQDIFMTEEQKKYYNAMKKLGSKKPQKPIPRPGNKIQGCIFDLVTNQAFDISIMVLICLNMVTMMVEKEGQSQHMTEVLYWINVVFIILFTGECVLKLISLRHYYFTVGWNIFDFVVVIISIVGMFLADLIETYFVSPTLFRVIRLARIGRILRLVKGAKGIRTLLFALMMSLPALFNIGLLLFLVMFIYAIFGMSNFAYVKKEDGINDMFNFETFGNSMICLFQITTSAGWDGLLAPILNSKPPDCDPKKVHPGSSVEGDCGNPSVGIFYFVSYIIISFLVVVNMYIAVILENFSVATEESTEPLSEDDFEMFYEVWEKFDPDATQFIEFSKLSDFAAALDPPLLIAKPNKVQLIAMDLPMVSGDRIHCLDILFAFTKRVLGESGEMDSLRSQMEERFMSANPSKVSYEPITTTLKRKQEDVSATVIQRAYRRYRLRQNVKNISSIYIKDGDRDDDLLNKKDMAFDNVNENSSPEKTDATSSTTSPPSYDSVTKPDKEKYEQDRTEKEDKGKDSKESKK

| SMILES | IC50 [µM] |
| --- | --- |
| CN1CC[C@H](N(C)[C@@]2(CCc3cccc(C(F)(F)F)c3)CCCN(c3cc(F)c(S(=O)(=O)Nc4ccncn4)c(F)c3)C2)C1 (single isomer, unassigned) [Example 45] | 0.00169 |
| CN(C)[C@@]1(CCc2ccc(C(F)(F)F)c(Cl)c2)CCCN(c2cc(F)c(S(=O)(=O)Nc3ccncn3)c(F)c2)C1 (single isomer, unassigned) [Example 50] | 0.504 |
| CN(C)[C@]1(CCc2ccc(C(F)(F)F)c(Cl)c2)CCCN(c2cc(F)c(S(=O)(=O)Nc3ccncn3)c(F)c2)C1 (single isomer, unassigned) [Example 51] | 0.00103 |
| CN(C)[C@@]1(CCc2cccc(C(F)(F)F)c2)CCCN(c2cc(F)c(S(=O)(=O)Nc3ncccn3)c(F)c2)C1 (single isomer, unassigned) [Example 52] | 0.569 |
| CN(C)[C@]1(CCc2cccc(C(F)(F)F)c2)CCCN(c2cc(F)c(S(=O)(=O)Nc3ncccn3)c(F)c2)C1 (single isomer, unassigned) [Example 53] | 0.00923 |
| CN(C)[C@@]1(CCc2ccc(Cl)c(C(F)(F)F)c2)CCCN(c2cc(F)c(S(=O)(=O)Nc3ccncn3)c(F)c2)C1 (single isomer, unassigned) [Example 54] | 0.362 |
| CN(C)[C@]1(CCc2ccc(Cl)c(C(F)(F)F)c2)CCCN(c2cc(F)c(S(=O)(=O)Nc3ccncn3)c(F)c2)C1 (single isomer, unassigned) [Example 55, formate] | 0.000879 |
| CN(C)[C@@]1(CCc2ccc(C(F)(F)F)cc2Cl)CCCN(c2cc(F)c(S(=O)(=O)Nc3ccncn3)c(F)c2)C1 (single isomer, unassigned) [Example 56] | 0.353 |
| CN(C)[C@]1(CCc2ccc(C(F)(F)F)cc2Cl)CCCN(c2cc(F)c(S(=O)(=O)Nc3ccncn3)c(F)c2)C1 (single isomer, unassigned) [Example 57] | 0.00504 |
| CN(C)[C@@]1(CCc2cccc(C(F)(F)F)c2)CCCN(c2cc(F)c(S(=O)(=O)Nc3ccon3)c(F)c2)C1 (single isomer, unassigned) [Example 58] | 10 |
| CN(C)[C@]1(CCc2cccc(C(F)(F)F)c2)CCCN(c2cc(F)c(S(=O)(=O)Nc3ccon3)c(F)c2)C1 (single isomer, unassigned) [Example 59] | 0.016 |
| CN(CCO)[C@@]1(CCc2cccc(C(F)(F)F)c2)CCCN(c2cc(F)c(S(=O)(=O)Nc3ccncn3)c(F)c2)C1 (single isomer, unassigned) [Example 60] | 0.138 |
| CN(CCO)[C@]1(CCc2cccc(C(F)(F)F)c2)CCCN(c2cc(F)c(S(=O)(=O)Nc3ccncn3)c(F)c2)C1 (single isomer, unassigned) [Example 61] | 0.00214 |
| Cc1cc(N2CCC[C@](CCc3cccc(C(F)(F)F)c3)(N(C)C)C2)cc(C)c1S(=O)(=O)Nc1ccncn1 (single isomer, unassigned) [Example 62, formate] | 0.00859 |
| Cc1cc(N2CCC[C@@](CCc3cccc(C(F)(F)F)c3)(N(C)C)C2)cc(C)c1S(=O)(=O)Nc1ccncn1 (single isomer, unassigned) [Example 63, formate] | 0.177 |
| CN(C)[C@@]1(CCc2cccc(C(F)(F)F)c2)CCCN(c2cc(Cl)c(S(=O)(=O)Nc3ccncn3)c(Cl)c2)C1 (single isomer, unassigned) [Example 64] | 0.00154 |
| CN(C)[C@]1(CCc2cccc(C(F)(F)F)c2)CCCN(c2cc(Cl)c(S(=O)(=O)Nc3ccncn3)c(Cl)c2)C1 (single isomer, unassigned) [Example 65] | 0.0694 |
| Cc1cc(N2CCC[C@](CCc3cccc(C(F)(F)F)c3)(N(C)C)C2)cc(Cl)c1S(=O)(=O)Nc1ccncn1 (single isomer, unassigned) [Example 66, formate] | 0.501 |

| SMILES | IC50 [µM] |
| --- | --- |
| Cc1cc(N2CCC[C@@](CCc3cccc(C(F)(F)F)c3)(N(C)C)C2)cc(Cl)c1S(=O)(=O)Nc1ccncn1 (single isomer, unassigned) [Example 67, formate] | 0.0024 |
| CN(C)[C@@]1(CCc2c(Cl)cccc2Cl)CCCN(c2cc(F)c(S(=O)(=O)Nc3ccncn3)c(F)c2)C1 (single isomer, unassigned) [Example 68, formate] | 3.14 |
| CN(C)[C@]1(CCc2c(Cl)cccc2Cl)CCCN(c2cc(F)c(S(=O)(=O)Nc3ccncn3)c(F)c2)C1 (single isomer, unassigned) [Example 69, formate] | 0.0277 |
| CN(C)[C@@]1(CCc2cccc(C(F)(F)F)c2)CCCN(c2ccc(S(=O)(=O)Nc3ccncn3)c(Cl)c2)C1 (single isomer, unassigned) [Example 70] | 0.00424 |
| CN(C)[C@]1(CCc2cccc(C(F)(F)F)c2)CCCN(c2ccc(S(=O)(=O)Nc3ccncn3)c(Cl)c2)C1 (single isomer, unassigned) [Example 71, formate] | 0.56 |
| Cc1cc(N2CCC[C@](CCc3cccc(C(F)(F)F)c3)(N(C)C)C2)ccc1S(=O)(=O)Nc1ccncn1 (single isomer, unassigned) [Example 72, formate] | 0.0092 |
| Cc1cc(N2CCC[C@@](CCc3cccc(C(F)(F)F)c3)(N(C)C)C2)ccc1S(=O)(=O)Nc1ccncn1 (single isomer, unassigned) [Example 73, formate] | 0.673 |
| CN(C)[C@]1(CCc2cccc(C(F)(F)F)c2)CN(c2cc(F)c(S(=O)(=O)Nc3ccncn3)c(F)c2)CC[C@H]1O (single isomer, unassigned) [Example 74, formate] | 1.01 |
| CN(C)[C@@]1(CCc2cccc(C(F)(F)F)c2)CN(c2cc(F)c(S(=O)(=O)Nc3ccncn3)c(F)c2)CC[C@@H]1O (single isomer, unassigned) [Example 75, formate] | 0.00448 |
| CN(C)[C@]1(CCc2cccc(C(F)(F)F)c2)CN(c2cc(F)c(S(=O)(=O)Nc3ccncn3)c(F)c2)CC[C@@H]1O (single isomer, unassigned) [Example 76, formate] | 0.0308 |
| CN(C)[C@@]1(CCc2cccc(C(F)(F)F)c2)CN(c2cc(F)c(S(=O)(=O)Nc3ccncn3)c(F)c2)CC[C@H]1O (single isomer, unassigned) [Example 77, formate] | 0.00255 |
| CCN(C)[C@@]1(CCc2cccc(C(F)(F)F)c2)CCCN(c2cc(F)c(S(=O)(=O)Nc3ccncn3)c(F)c2)C1 (single isomer, unassigned) [Example 78] | 0.974 |
| CCN(C)[C@]1(CCc2cccc(C(F)(F)F)c2)CCCN(c2cc(F)c(S(=O)(=O)Nc3ccncn3)c(F)c2)C1 (single isomer, unassigned) [Example 79, formate] | 0.00756 |
| CN([C@H]1CCOC1)[C@@]1(CCc2cccc(C(F)(F)F)c2)CCCN(c2cc(F)c(S(=O)(=O)Nc3ccncn3)c(F)c2)C1 (single isomer, unassigned) [Example 80] | 0.283 |
| CN([C@@H]1CCOC1)[C@]1(CCc2cccc(C(F)(F)F)c2)CCCN(c2cc(F)c(S(=O)(=O)Nc3ccncn3)c(F)c2)C1 (single isomer, unassigned) [Example 81] | 0.000681 |
| CN([C@@H]1CCOC1)[C@@]1(CCc2cccc(C(F)(F)F)c2)CCCN(c2cc(F)c(S(=O)(=O)Nc3ccncn3)c(F)c2)C1 (single isomer, unassigned) [Example 82] | 0.657 |
| CN([C@H]1CCOC1)[C@]1(CCc2cccc(C(F)(F)F)c2)CCCN(c2cc(F)c(S(=O)(=O)Nc3ccncn3)c(F)c2)C1 (single isomer, unassigned) [Example 83] | 0.00168 |
